# Source: the supplement of paper PMC10307832
# What was measured:
# Assay in all cases: relative viability (nuclei count vs DMSO), 5 days (fraction); higher = more cells survive
# 201T = tested on: 201T
# Summary of the method: (§1)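 Relative viability divides the nuclei count in treated wells by that in vehicle wells. Lung cancer cell lines were seeded in 1536-well plates, dosed by pin tool the next day, and fixed and stained after 5 days in one step with final 0.05% Triton X-100, 1% formaldehyde and 1 ug/ml Hoechst. Dosing was a single drug or a fixed anchor-drug dose plus five library-drug doses (not always all listed) in √10 steps, and values are medians of duplicate plates imaged at 4×.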
# A-427 = tested on: A-427
# Summary of the method: as §1
# BEN = tested on: BEN
# Summary of the method: as §1
# COR-L 105 = tested on: COR-L 105
# Summary of the method: as §1
# COR-L23 = tested on: COR-L23
# Summary of the method: as §1
# EKVX = tested on: EKVX
# Summary of the method: as §1
# HARA = tested on: HARA
# Summary of the method: as §1
# HCC-15 = tested on: HCC-15
# Summary of the method: as §1
# HCC-44 = tested on: HCC-44
# Summary of the method: as §1
# HCC-827 = tested on: HCC-827
# Summary of the method: as §1
# LK-2 = tested on: LK-2
# Summary of the method: as §1
# NCI-H1437 = tested on: NCI-H1437
# Summary of the method: as §1
# NCI-H1666 = tested on: NCI-H1666
# Summary of the method: as §1
# NCI-H1792 = tested on: NCI-H1792
# Summary of the method: as §1
# NCI-H1975 = tested on: NCI-H1975
# Summary of the method: as §1
# NCI-H23 = tested on: NCI-H23
# Summary of the method: as §1
# NCI-H358 = tested on: NCI-H358
# Summary of the method: as §1
# NCI-H441 = tested on: NCI-H441
# Summary of the method: as §1
# NCI-H596 = tested on: NCI-H596
# Summary of the method: as §1
# NCI-H650 = tested on: NCI-H650
# Summary of the method: as §1
# NCI-H838 = tested on: NCI-H838
# Summary of the method: as §1
# SK-MES-1 = tested on: SK-MES-1
# Summary of the method: as §1
compound,measurement,setting,value
CC1(C)CCC(c2ccc(Cl)cc2)=C(CN2CCN(c3ccc(C(=O)NS(=O)(=O)c4ccc(N[C@H](CCN5CCOCC5)CSc5ccccc5)c(S(=O)(=O)C(F)(F)F)c4)cc3)CC2)C1 [Navitoclax] + C[C@@H](Oc1cc(-c2cnn(C3CCNCC3)c2)cnc1N)c1c(Cl)ccc(F)c1Cl [Crizotinib] (partner 1 µM),relative viability,201T; first compound 0.005 µM,1.03
same,relative viability,201T; first compound 0.01581 µM,1.05
same,relative viability,201T; first compound 0.05 µM,0.975
same,relative viability,201T; first compound 0.1581 µM,1.04
same,relative viability,201T; first compound 0.5 µM,1.03
same,relative viability,A-427; first compound 0.005 µM,0.828
same,relative viability,A-427; first compound 0.01581 µM,0.948
same,relative viability,A-427; first compound 0.05 µM,0.652
same,relative viability,A-427; first compound 0.1581 µM,1.01
same,relative viability,A-427; first compound 0.5 µM,0.915
same,relative viability,BEN; first compound 0.005 µM,0.878
same,relative viability,BEN; first compound 0.01581 µM,0.897
same,relative viability,BEN; first compound 0.05 µM,0.936
same,relative viability,BEN; first compound 0.1581 µM,0.944
same,relative viability,BEN; first compound 0.5 µM,0.662
same,relative viability,COR-L 105; first compound 0.005 µM,0.651
same,relative viability,COR-L 105; first compound 0.01581 µM,0.98
same,relative viability,COR-L 105; first compound 0.05 µM,0.773
same,relative viability,COR-L 105; first compound 0.1581 µM,0.927
same,relative viability,COR-L 105; first compound 0.5 µM,0.699
same,relative viability,COR-L23; first compound 0.005 µM,0.618
same,relative viability,COR-L23; first compound 0.01581 µM,0.712
same,relative viability,COR-L23; first compound 0.05 µM,0.686
same,relative viability,COR-L23; first compound 0.1581 µM,0.664
same,relative viability,COR-L23; first compound 0.5 µM,0.643
same,relative viability,EKVX; first compound 0.005 µM,1
same,relative viability,EKVX; first compound 0.01581 µM,1.16
same,relative viability,EKVX; first compound 0.05 µM,1.08
same,relative viability,EKVX; first compound 0.1581 µM,0.93
same,relative viability,EKVX; first compound 0.5 µM,0.888
same,relative viability,HARA; first compound 0.005 µM,1.09
same,relative viability,HARA; first compound 0.01581 µM,1.16
same,relative viability,HARA; first compound 0.05 µM,0.944
same,relative viability,HARA; first compound 0.1581 µM,0.907
same,relative viability,HARA; first compound 0.5 µM,1.01
same,relative viability,HCC-15; first compound 0.005 µM,0.802
same,relative viability,HCC-15; first compound 0.01581 µM,0.848
same,relative viability,HCC-15; first compound 0.05 µM,0.883
same,relative viability,HCC-15; first compound 0.1581 µM,0.822
same,relative viability,HCC-15; first compound 0.5 µM,0.786
same,relative viability,HCC-44; first compound 0.005 µM,0.815
same,relative viability,HCC-44; first compound 0.01581 µM,0.835
same,relative viability,HCC-44; first compound 0.05 µM,0.794
same,relative viability,HCC-44; first compound 0.1581 µM,0.825
same,relative viability,HCC-44; first compound 0.5 µM,0.866
same,relative viability,HCC-827; first compound 0.005 µM,0.96
same,relative viability,HCC-827; first compound 0.01581 µM,0.962
same,relative viability,HCC-827; first compound 0.05 µM,0.966
same,relative viability,HCC-827; first compound 0.1581 µM,0.958
same,relative viability,HCC-827; first compound 0.5 µM,0.935
same,relative viability,LK-2; first compound 0.005 µM,0.226
same,relative viability,LK-2; first compound 0.01581 µM,0.21
same,relative viability,LK-2; first compound 0.05 µM,0.246
same,relative viability,LK-2; first compound 0.1581 µM,0.191
same,relative viability,LK-2; first compound 0.5 µM,0.263
same,relative viability,NCI-H1437; first compound 0.005 µM,0.916
same,relative viability,NCI-H1437; first compound 0.01581 µM,0.93
same,relative viability,NCI-H1437; first compound 0.05 µM,0.892
same,relative viability,NCI-H1437; first compound 0.1581 µM,0.961
same,relative viability,NCI-H1437; first compound 0.5 µM,0.873
same,relative viability,NCI-H1666; first compound 0.005 µM,0.991
same,relative viability,NCI-H1666; first compound 0.01581 µM,1.08
same,relative viability,NCI-H1666; first compound 0.05 µM,1.03
same,relative viability,NCI-H1666; first compound 0.1581 µM,0.879
same,relative viability,NCI-H1666; first compound 0.5 µM,0.975
same,relative viability,NCI-H1792; first compound 0.005 µM,0.996
same,relative viability,NCI-H1792; first compound 0.01581 µM,1.04
same,relative viability,NCI-H1792; first compound 0.05 µM,0.911
same,relative viability,NCI-H1792; first compound 0.1581 µM,1
same,relative viability,NCI-H1792; first compound 0.5 µM,0.946
same,relative viability,NCI-H1975; first compound 0.005 µM,0.836
same,relative viability,NCI-H1975; first compound 0.01581 µM,1.07
same,relative viability,NCI-H1975; first compound 0.05 µM,1.12
same,relative viability,NCI-H1975; first compound 0.1581 µM,0.921
same,relative viability,NCI-H1975; first compound 0.5 µM,0.887
same,relative viability,NCI-H23; first compound 0.005 µM,0.519
same,relative viability,NCI-H23; first compound 0.01581 µM,0.494
same,relative viability,NCI-H23; first compound 0.05 µM,0.516
same,relative viability,NCI-H23; first compound 0.1581 µM,0.516
same,relative viability,NCI-H23; first compound 0.5 µM,0.545
same,relative viability,NCI-H358; first compound 0.005 µM,0.567
same,relative viability,NCI-H358; first compound 0.01581 µM,0.595
same,relative viability,NCI-H358; first compound 0.05 µM,0.634
same,relative viability,NCI-H358; first compound 0.1581 µM,0.506
same,relative viability,NCI-H358; first compound 0.5 µM,0.743
same,relative viability,NCI-H441; first compound 0.005 µM,0.657
same,relative viability,NCI-H441; first compound 0.01581 µM,0.865
same,relative viability,NCI-H441; first compound 0.05 µM,0.734
same,relative viability,NCI-H441; first compound 0.1581 µM,0.764
same,relative viability,NCI-H441; first compound 0.5 µM,0.621
same,relative viability,NCI-H596; first compound 0.005 µM,1.02
same,relative viability,NCI-H596; first compound 0.01581 µM,0.985
same,relative viability,NCI-H596; first compound 0.05 µM,0.802
same,relative viability,NCI-H596; first compound 0.1581 µM,1.02
same,relative viability,NCI-H596; first compound 0.5 µM,1.01
same,relative viability,NCI-H650; first compound 0.005 µM,0.636
same,relative viability,NCI-H650; first compound 0.01581 µM,0.699
same,relative viability,NCI-H650; first compound 0.05 µM,0.814
same,relative viability,NCI-H650; first compound 0.1581 µM,0.707
same,relative viability,NCI-H650; first compound 0.5 µM,0.805
same,relative viability,NCI-H838; first compound 0.005 µM,0.794
same,relative viability,NCI-H838; first compound 0.01581 µM,0.885
same,relative viability,NCI-H838; first compound 0.05 µM,1.01
same,relative viability,NCI-H838; first compound 0.1581 µM,0.802
same,relative viability,NCI-H838; first compound 0.5 µM,0.817
same,relative viability,SK-MES-1; first compound 0.005 µM,0.953
same,relative viability,SK-MES-1; first compound 0.01581 µM,1.07
same,relative viability,SK-MES-1; first compound 0.05 µM,1.08
same,relative viability,SK-MES-1; first compound 0.1581 µM,0.953
same,relative viability,SK-MES-1; first compound 0.5 µM,0.978
